Target: hERG channel (Homo sapiens, UniProt Q12809)
Assay: Inhibition of the hERG channel
Format: biochemical
Conditions: for IC50: studies conducted by Wuxi AppTec

Chain of hERG channel (Q12809 whole entry): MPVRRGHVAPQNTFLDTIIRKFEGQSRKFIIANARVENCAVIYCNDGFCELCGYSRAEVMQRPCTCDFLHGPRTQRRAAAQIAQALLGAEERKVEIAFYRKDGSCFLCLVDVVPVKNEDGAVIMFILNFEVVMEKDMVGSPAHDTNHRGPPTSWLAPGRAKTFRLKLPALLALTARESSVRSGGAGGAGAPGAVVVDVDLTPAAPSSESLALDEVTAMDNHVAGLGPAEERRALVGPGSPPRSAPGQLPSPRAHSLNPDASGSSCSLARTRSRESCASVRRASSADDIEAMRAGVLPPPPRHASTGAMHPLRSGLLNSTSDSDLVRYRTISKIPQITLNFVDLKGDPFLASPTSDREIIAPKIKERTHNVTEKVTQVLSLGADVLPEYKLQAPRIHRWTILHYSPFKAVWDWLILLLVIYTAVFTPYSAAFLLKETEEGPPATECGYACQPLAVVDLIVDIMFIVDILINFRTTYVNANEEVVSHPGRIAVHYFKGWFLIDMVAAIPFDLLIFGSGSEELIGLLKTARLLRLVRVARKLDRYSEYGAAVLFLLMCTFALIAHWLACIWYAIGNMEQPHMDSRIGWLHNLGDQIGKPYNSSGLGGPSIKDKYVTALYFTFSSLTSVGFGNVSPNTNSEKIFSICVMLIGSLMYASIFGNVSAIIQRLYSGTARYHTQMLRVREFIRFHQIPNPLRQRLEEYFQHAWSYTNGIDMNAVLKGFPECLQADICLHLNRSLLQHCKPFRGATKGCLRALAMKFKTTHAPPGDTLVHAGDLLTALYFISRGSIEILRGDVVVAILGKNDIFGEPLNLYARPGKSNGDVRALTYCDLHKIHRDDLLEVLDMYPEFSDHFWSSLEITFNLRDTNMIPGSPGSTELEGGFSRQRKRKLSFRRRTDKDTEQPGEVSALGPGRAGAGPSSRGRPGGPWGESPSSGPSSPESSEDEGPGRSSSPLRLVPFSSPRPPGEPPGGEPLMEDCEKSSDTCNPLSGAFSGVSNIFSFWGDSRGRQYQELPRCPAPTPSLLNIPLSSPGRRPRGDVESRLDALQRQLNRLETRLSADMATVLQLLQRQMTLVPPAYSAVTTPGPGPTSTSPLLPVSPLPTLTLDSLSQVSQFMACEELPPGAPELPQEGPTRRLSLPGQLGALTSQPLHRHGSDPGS

Q: Which results are given for `COc1cc([C@H](c2cc3cc(Br)ccc3nc2OC)[C@@](O)(CCN(C)C)c2cccc(F)c2)cnc1OC` [Compound 43]?
A: IC50: 1900 nM; improvement in hERG IC50 relative to 1 (versus compound 1): 5 fold

Q: How did the IC50 turn out when `COc1nc2ccc(Br)cc2cc1[C@@H](c1ccnc(OC)c1OC)[C@@](O)(CCN(C)C)c1cccc(C)c1` [Compound 45] was run?
A: The IC50 was 530 nM.

Q: How did the IC50 turn out when `COc1nc2ccc(Br)cc2cc1[C@@H](c1cc(C)c(C)s1)[C@@](O)(CCN(C)C)c1cccc(F)c1` [Compound 9] was run?
A: The IC50 was 880 nM.

Reference: publication PMC5696560 (Bioorganic & Medicinal Chemistry Letters, 2017)
